Results taken from US8106055B2, “Substituted amide compounds” (Gruenenthal GmbH, priority 2007, dated 2012).
Read-outs that look alike come from different tables or passages of the source.

Key:
[1] = target: T1, human bradykinin 1 receptor (B1R) (Homo sapiens, UniProt P46663); assay: Functional investigation on the human bradykinin 1 receptor (B1R), Ca2+ FLIPR assay in CHO K1 hB1R cells; format: cell-based
T1 construct: expressed in transfected cells; host or cells: CHO K1 cells
T1 sequence (P46663 1-353): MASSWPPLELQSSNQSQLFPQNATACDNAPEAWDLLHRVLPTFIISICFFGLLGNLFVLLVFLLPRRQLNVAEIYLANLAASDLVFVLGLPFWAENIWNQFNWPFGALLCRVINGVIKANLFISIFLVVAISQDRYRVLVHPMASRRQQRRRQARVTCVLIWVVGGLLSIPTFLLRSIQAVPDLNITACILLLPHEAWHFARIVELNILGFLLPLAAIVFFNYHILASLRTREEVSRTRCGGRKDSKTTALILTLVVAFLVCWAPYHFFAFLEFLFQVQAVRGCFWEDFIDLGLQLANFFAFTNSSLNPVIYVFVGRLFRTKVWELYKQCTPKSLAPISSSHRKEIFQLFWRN
Description: (§1) Functional Investigation on the Human Bradykinin 1 Receptor (B1R)
(§2) The agonistic or antagonistic action of substances can be determined on the bradykinin 1 receptor (B1R) of the human species and rats with the following assay. In accordance with this assay, the Ca^2+ inflow through the channel is quantified with the aid of a Ca^2=-sensitive dyestuff (type Fluo-4, Molecular Probes Europe BV, Leiden, Holland) in a fluorescent imaging plate reader (FLIPR, Molecular Devices, Sunnyvale, USA).
(§3) Chinese hamster ovary cells (CHO K1 cells) transfected stably with the human B1R gene (hB1R cells) or the B1R gene of the rat (rB1R cells) are used. For functional studies, these cells are plated out on black 96-well plates with a clear base (BD Biosciences, Heidelberg, Germany or Greiner, Frickenhausen, Germany) in a density of 20,000-35,000 cells/well. The cells are left overnight at 37° C. and 5% CO2 in culture medium (hB1R cells: Nutrient Mixture Ham's F12, Gibco Invitrogen GmbH, Karlsruhe, Germany or DMEM, Sigma-Aldrich, Taufkirchen, Germany; rB1R cells: D-MEM/F12, Gibco Invitrogen GmbH, Karlsruhe, Germany) with 10 vol. % of FBS (foetal bovine serum, Gibco Invitrogen GmbH, Karlsruhe, Germany or PAN Biotech GmbH, Aidenbach, Germany).
(§4) On the following day, the cells are loaded for 60 min at 37° C. with 2.13 μM Fluo-4 (Molecular Probes Europe BV, Leiden, The Netherlands) in HBSS buffer (Hank's buffered saline solution, Gibco Invitrogen GmbH, Karlsruhe, Germany) with 2.5 mM probenecid (Sigma-Aldrich, Taufkirchen, Germany) and 10 mM HEPES (Sigma-Aldrich, Taufkirchen, Germany). The plates are then washed 2× with HBSS buffer, and HBSS buffer which additionally contains 0.1% of BSA (bovine serum albumin; Sigma-Aldrich, Taufkirchen, Germany), 5.6 mM glucose and 0.05% of gelatine (Merck KGaA, Darmstadt, Germany) is added. After a further incubation of 20 minutes at room temperature, the plates are inserted into the FLIPR for the Ca^2+ measurement.
(§5) Alternatively, the plates are washed with buffer A (15 mM HEPES, 80 mM NaCl, 5 mM KCl, 1.2 mM CaCl2, 0.7 mM MgSO4, 2 g/l glucose, 2.5 mM probenecid), buffer A is added and the plates are loaded with 2.5 μM Fluo-4 and 0.025% of Pluronic F127 (Sigma-Aldrich, Taufkirchen, Germany). Thereafter, the cells are washed 2× with buffer A and incubated for 30 minutes with buffer A, which additionally contains 0.05% of BSA and 0.05% of gelatine, at room temperature and thereafter inserted into the FLIPR for the Ca^2+ measurement.
(§6) The Ca^2+-dependent fluorescence is measured before and after addition of substances (λex=488 nm, λem=540 nm). Quantification is by measurement of the highest fluorescence intensity (FC, fluorescence counts) over time.
(§7) The FLIPR protocol consists of 2 additions of substance. Test substances (10 μM) are first pipetted on to the cells and the Ca^2+ inflow is compared with the control (hB1R: Lys-Des-Arg^9-bradykinin >=50 nM; rB1R: Des-Arg^9-bradykinin 10 μM). This gives the information in % activation based on the Ca^2+ signal after addition of Lys-Des-Arg^9-bradykinin (>=50 nM) or Des-Arg^9-bradykinin (10 μM).
(§8) After incubation for 10-20 minutes, Lys-Des-Arg^9-bradykinin (hB1R) or Des-Arg^9-bradykinin (rB1R) is applied in the concentration of the EC80 and the inflow of Ca^2+ is likewise determined.
(§9) Antagonists lead to a suppression of the Ca^2+ inflow. % inhibition compared with the maximum achievable inhibition is calculated.
(§10) To determine the IC50 value, the substances are added in various concentrations. Duplicate or triplicate determinations (n=2 or n=3) are carried out, and these are repeated in at least one further independent experiment (N>=2).
(§11) Preferably, the compounds have a B1R antagonistic action on the human receptor and/or on the rat receptor. The following data are given by way of example in the following table: (In this, “B1R Ant. h” represents “B1R antagonism human” and “B1R Ant. r” represents “B1R antagonism rat”)

[2] = target: T2, bradykinin 1 receptor (B1R) of the rat (Rattus norvegicus, UniProt P97583); assay: Functional investigation on the rat bradykinin 1 receptor (B1R), Ca2+ FLIPR assay in CHO K1 rB1R cells; format: cell-based
T2 construct: expressed in transfected cells; host or cells: CHO K1 cells
T2 sequence (P97583 1-337): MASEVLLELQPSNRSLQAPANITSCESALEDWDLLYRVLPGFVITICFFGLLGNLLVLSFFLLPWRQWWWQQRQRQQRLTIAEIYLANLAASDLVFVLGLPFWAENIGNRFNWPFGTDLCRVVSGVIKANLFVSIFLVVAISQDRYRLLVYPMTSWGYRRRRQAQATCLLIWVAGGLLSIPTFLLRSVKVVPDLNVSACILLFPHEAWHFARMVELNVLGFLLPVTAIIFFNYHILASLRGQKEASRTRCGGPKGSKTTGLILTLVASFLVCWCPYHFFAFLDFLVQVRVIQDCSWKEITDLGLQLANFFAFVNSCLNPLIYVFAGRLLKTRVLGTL
Description: as §1, §2, §3, §4, §5, §6, §7, §8, §9, §10, §11

[3] = CHO-K1, B1R antagonism human, test substance 10 μM, Ca2+ FLIPR, CHO K1 hB1R cells, read-out: B1R Ant. h [10 μM] % Inhibition
[4] = CHO-K1, B1R antagonism rat, test substance 10 μM, Ca2+ FLIPR, CHO K1 rB1R cells, read-out: B1R Ant. r [10 μM] % Inhibition

Compound | inhibition at 10 µM [1, 3] [%] | inhibition at 10 µM [2, 4] [%] | other results
O=C(COCCN(C1CC1)S(=O)(=O)c1c(Cl)cc(Cl)cc1Cl)NC1CCC(C(c2ccccc2)N2CCOCC2)CC1 (stereo not drawn) [Example 605, 2-{2-[cyclopropyl-(2,4,6-trichlorobenzenesulfonyl)-amino]-ethoxy}-N-[4-(morpholin-4-yl-phenylmethyl)-cyclohexyl]-acetamide] | 40 | 38 | –
CN(CCOCC(=O)NC1CCC(C(c2ccccc2)N2CCOCC2)CC1)S(=O)(=O)c1c(Cl)cc(Cl)cc1Cl (stereo not drawn) [Example 607, 2-{2-[methyl-(2,4,6-trichlorobenzenesulfonyl)-amino]-ethoxy}-N-[4-(morpholin-4-ylphenylmethyl)-cyclohexyl]-acetamide] | – | – | B1R Ant. h [10 μM] % Inhibition ([1]; B1R antagonism human, test substance 10 μM, Ca2+ FLIPR, CHO K1 hB1R cells): 12%; B1R Ant. r [10 μM] % Inhibition ([2]; B1R antagonism rat, test substance 10 μM, Ca2+ FLIPR, CHO K1 rB1R cells): 3%
O=C(COC1CCN(S(=O)(=O)c2c(Cl)cc(Cl)cc2Cl)C1)NC1CCC(C(c2ccccc2)N2CCOCC2)CC1 (stereo not drawn) [Example 610, N-[4-(morpholin-4-ylphenylmethyl)-cyclohexyl]-2-[1-(2,4,6-trichlorobenzenesulfonyl)-pyrrolidin-3-yloxy]-acetamide] | 12 | 5 | –
CN(C)C(c1ccccc1)C1CCC(NC(=O)CNC(=O)c2nc(-c3cc(Cl)cc(Cl)c3)no2)CC1 (stereo not drawn) [Example 760, 3-(3,5-dichloro-phenyl)-[1,2,4]oxadiazole-5-carboxylic acid {[4-(dimethylamino-phenyl-methyl)-cyclohexylcarbamoyl]-methyl}-amide] | 66 | -4 | –
CN(C)C(c1ccccc1)C1CCC(NC(=O)CCNC(=O)c2nc(-c3cc(Cl)cc(Cl)c3)no2)CC1 (stereo not drawn) [Example 761, 3-(3,5-dichloro-phenyl)-[1,2,4]oxadiazole-5-carboxylic acid {2-[4-(dimethylamino-phenyl-methyl)-cyclohexylcarbamoyl]-ethyl}-amide] | – | – | inhibition at 10 µM ([1]; CHO-K1, read-out: B1R Ant. h [10 μM] % Inhibition): 34%; inhibition at 10 µM ([2]; CHO-K1, read-out: B1R Ant. r [10 μM] % Inhibition): 15%
Cc1cc(Cl)cc(Cl)c1-c1noc(C(=O)NCC(=O)NC2CCC(C(c3ccccc3)N(C)C)CC2)n1 (stereo not drawn) [Example 762, 3-(2,4-dichloro-6-methyl-phenyl)-[1,2,4]oxadiazole-5-carboxylic acid {[4-(dimethylamino-phenyl-methyl)-cyclohexylcarbamoyl]-methyl}-amide] | 73 | 25 | –
COc1ccccc1-c1noc(C(=O)NCC(=O)NC2CCC(C(c3ccccc3)N(C)C)CC2)n1 (stereo not drawn) [Example 763, 3-(2-methoxy-phenyl)-[1,2,4]oxadiazole-5-carboxylic acid {[4-(dimethylamino-phenyl-methyl)-cyclohexylcarbamoyl]-methyl}-amide] | -10 | 22 | –
CN(C)C(c1ccccc1)C1CCC(NC(=O)CNC(=O)c2nc(-c3cccs3)no2)CC1 (stereo not drawn) [Example 764, 3-thiophen-2-yl-[1,2,4]oxadiazole-5-carboxylic acid {[4-(dimethylamino-phenyl-methyl)-cyclohexylcarbamoyl]-methyl}-amide] | 17 | -31 | –
CN(C)C(c1ccccc1)C1CCC(NC(=O)CNC(=O)c2nc(-c3ccc(C(F)(F)F)cc3)no2)CC1 (stereo not drawn) [Example 765, 3-(4-trifluoromethyl-phenyl)-[1,2,4]oxadiazole-5-carboxylic acid {[4-(dimethylamino-phenyl-methyl)-cyclohexylcarbamoyl]-methyl}-amide] | 15 | 29 | –
CN(C)C(c1ccccc1)C1CCC(NC(=O)CNC(=O)c2nc(-c3ccc(C(C)(C)C)cc3)no2)CC1 (stereo not drawn) [Example 766, 3-(4-tert-butyl-phenyl)-[1,2,4]oxadiazole-5-carboxylic acid {[4-(dimethylamino-phenyl-methyl)-cyclohexylcarbamoyl]-methyl}-amide] | 6 | -9 | –
Cc1ccc(F)cc1-c1noc(C(=O)NCC(=O)NC2CCC(C(c3ccccc3)N(C)C)CC2)n1 (stereo not drawn) [Example 767, 3-(5-fluoro-2-methyl-phenyl)-[1,2,4]oxadiazole-5-carboxylic acid {[4-(dimethylamino-phenyl-methyl)-cyclohexylcarbamoyl]-methyl}-amide] | 43 | 17 | –
CN(C)C(c1ccccc1)C1CCC(NC(=O)CCNC(=O)c2nc(-c3ccc4c(c3)OCO4)no2)CC1 (stereo not drawn) [Example 768, 3-benzo[1,3]dioxol-5-yl-[1,2,4]oxadiazole-5-carboxylic acid {2-[4-(dimethylamino-phenyl-methyl)-cyclohexylcarbamoyl]-ethyl}-amide] | -3 | -2 | –
CN(C)C(c1ccccc1)C1CCC(NC(=O)CNC(=O)c2nc(CS(=O)(=O)c3ccccc3)no2)CC1 (stereo not drawn) [Example 769, 3-benzenesulfonylmethyl-[1,2,4]oxadiazole-5-carboxylic acid {[4-(dimethylamino-phenyl-methyl)-cyclohexylcarbamoyl]-methyl}-amide] | 15 | 39 | –
CN(C)C(c1ccccc1)C1CCC(NC(=O)CNC(=O)c2nc(-c3c(Cl)cccc3Cl)no2)CC1 (stereo not drawn) [Example 770, 3-(2,6-dichloro-phenyl)-[1,2,4]oxadiazole-5-carboxylic acid {[4-(dimethylamino-phenyl-methyl)-cyclohexylcarbamoyl]-methyl}-amide] | 53 | 16 | –
CN(C)C(c1ccccc1)C1CCC(NC(=O)CCNC(=O)c2nc(-c3ccccn3)no2)CC1 (stereo not drawn) [Example 771, 3-pyridin-2-yl-[1,2,4]oxadiazole-5-carboxylic acid {2-[4-(dimethylamino-phenyl-methyl)-cyclohexylcarbamoyl]-ethyl}-amide] | -16 | 8 | –
